In patent publication US20180002312A1, “TETRA- AND PENTASUBSTITUTED BENZIMIDAZOLIUM COMPOUNDS USEFUL IN THE TREATMENT OF RESPIRATORY DISEASES” (Boehringer Ingelheim International GmbH, priority 2015, published 2018):
Read-outs that look alike come from different tables or passages of the source.

Legend:
[1] = Permeability in CALU-3 cells; assay type: in vitro ADME; conditions: human, CALU-3 monolayers, pH 7.4, 37° C., 10 μM compound; for Papp A→B at 90 min, 10 μM: apical-to-basal; for Papp B→A at 90 min, 10 μM: basal-to-apical
Protocol: Permeability in CALU-3 Cells:
Permeability measurements across polarized, confluent CALU-3 cell monolayers grown on permeable filter supports are used to provide information on the potential of a compound to pass the lung epithelium.
CALU-3 cells (1-2×10^5 cells/1 cm^2 area) are seeded on filter inserts (Costar transwell polycarbonate filters, 0.4 μm pore size) and cultured (for 10-12 days DMEM) until tight monolayers are formed. Compounds of interest are dissolved in appropriate solvent (DMSO, 10 mM stock solution). […] The transport solution (TL) is applied to the apical or basolateral donor side for measuring A-B or B-A permeability (3 filter replicates), respectively. The receiver side contains the same buffer as the donor side. After 30 min of accommodation, samples are collected at the start t0=0 min and at the end of the experiment tn=90 min from the donor and at 0, 30, 60, and 90 min also from the receiver chamber. Volume removed is […] by HTP-4 buffer. The compound concentration in the samples is measured by HPLC-MS/MS or scintillation counting. The permeability coefficient (Papp) and efflux ratio are calculated according to: Papp [cm/s]=(concentration receiver [nM]*volume receiver [mL]/time interval [sec])*(1/filter area)*(1/donor concentration [nM]).

[2] = biological target: T1, ENaC (Epithelial Sodium Channel) (Mus musculus, UniProt Q61180+Q9WU38+Q9WU39); test: Ussing Chamber assay: inhibition of amiloride sensitive short circuit current in M-1 cells; assay type: cell-based
T1 construct: Mouse kidney M-1 cells were cultivated in DMEM; endogenous in cells; host or cells: mouse kidney M-1 cells (cortical collecting duct line), dexamethasone-treated, grown on transwell filters
T1 sequence (Q61180 1-699): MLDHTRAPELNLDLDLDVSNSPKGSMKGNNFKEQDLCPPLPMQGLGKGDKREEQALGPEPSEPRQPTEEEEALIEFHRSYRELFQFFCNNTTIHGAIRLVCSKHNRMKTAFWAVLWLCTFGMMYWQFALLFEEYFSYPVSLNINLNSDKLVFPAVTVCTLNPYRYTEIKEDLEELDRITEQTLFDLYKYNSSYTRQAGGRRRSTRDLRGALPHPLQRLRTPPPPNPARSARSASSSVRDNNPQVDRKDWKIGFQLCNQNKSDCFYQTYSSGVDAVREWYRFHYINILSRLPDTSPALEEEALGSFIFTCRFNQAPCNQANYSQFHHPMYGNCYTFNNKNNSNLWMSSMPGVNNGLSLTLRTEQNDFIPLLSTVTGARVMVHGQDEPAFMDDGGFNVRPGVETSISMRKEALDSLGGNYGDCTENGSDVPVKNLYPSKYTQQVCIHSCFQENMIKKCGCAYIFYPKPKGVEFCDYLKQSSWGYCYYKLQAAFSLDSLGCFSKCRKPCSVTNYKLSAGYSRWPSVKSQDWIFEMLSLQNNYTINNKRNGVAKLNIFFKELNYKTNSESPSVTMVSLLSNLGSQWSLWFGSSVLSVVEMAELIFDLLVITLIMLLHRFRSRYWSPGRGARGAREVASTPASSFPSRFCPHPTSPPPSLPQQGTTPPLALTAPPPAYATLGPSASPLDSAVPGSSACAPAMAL
T1 sequence (Q9WU38 1-638): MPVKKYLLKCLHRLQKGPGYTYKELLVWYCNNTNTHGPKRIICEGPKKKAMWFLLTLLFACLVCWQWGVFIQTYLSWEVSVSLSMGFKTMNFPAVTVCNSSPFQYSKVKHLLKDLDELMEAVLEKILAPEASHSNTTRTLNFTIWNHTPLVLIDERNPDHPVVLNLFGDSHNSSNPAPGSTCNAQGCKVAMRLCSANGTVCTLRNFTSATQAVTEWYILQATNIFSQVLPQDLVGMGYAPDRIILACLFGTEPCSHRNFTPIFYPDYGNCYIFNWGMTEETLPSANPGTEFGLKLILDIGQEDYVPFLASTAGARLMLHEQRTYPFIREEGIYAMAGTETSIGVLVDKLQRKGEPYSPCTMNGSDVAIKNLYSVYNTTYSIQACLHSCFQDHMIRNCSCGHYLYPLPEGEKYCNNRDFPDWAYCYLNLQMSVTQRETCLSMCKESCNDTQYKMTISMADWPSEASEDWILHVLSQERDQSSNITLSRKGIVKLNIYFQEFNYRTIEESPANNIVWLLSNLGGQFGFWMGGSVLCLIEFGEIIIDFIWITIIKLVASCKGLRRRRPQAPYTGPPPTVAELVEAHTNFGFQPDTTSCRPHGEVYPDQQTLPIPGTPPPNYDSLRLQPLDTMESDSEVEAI
T1 sequence (Q9WU39 1-655): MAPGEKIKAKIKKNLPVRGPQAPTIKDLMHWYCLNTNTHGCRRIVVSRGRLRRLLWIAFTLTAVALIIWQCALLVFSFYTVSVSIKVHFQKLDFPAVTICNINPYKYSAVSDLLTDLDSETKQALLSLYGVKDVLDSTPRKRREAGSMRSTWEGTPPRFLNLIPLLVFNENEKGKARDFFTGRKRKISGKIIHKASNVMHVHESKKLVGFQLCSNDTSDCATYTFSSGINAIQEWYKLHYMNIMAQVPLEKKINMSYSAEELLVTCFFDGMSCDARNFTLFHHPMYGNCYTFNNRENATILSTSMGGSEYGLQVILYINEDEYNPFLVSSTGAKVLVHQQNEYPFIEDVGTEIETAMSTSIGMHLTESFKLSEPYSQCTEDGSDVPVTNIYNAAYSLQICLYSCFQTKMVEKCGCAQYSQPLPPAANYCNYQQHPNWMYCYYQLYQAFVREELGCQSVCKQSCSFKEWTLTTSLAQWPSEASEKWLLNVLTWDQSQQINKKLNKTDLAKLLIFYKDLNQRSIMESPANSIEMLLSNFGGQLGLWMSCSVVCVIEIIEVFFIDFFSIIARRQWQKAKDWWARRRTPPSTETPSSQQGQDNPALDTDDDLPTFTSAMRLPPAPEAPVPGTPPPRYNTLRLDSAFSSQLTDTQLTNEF
Protocol: Ussing Chamber: Mouse kidney M-1 cells were cultivated in DMEM containing 5% FCS and 5 μM dexamethasone for 10 to 12 days on polyester transwell filters. Filters were inserted into a teflon-coated well-plate which fit into the ussing chamber system. Prior to measurement the medium of M-1 cells was replaced with Caco-2 transport buffer (Invitrogen, Germany). During measurements, the Ussing chamber temperature was kept at 37° C. Short circuit currents (I_sc) were measured in the voltage-clamp mode with the software package Lab View for data acquisition and analysis. The transepithelial electrical resistance (TEER) was determined by the application of voltage steps of ±5 mV every 5 sec. Compounds were administered at a final concentration of 3 μM or at increasing concentrations (1-3-10 μM) to the apical solution. At the end of each experiment the amiloride sensitive I_SC was measured by adding 3 μM amiloride to the apical compartment. Results are expressed as inhibition in percent of the amiloride effect or as IC50.

[3] = Ussing chamber, mouse kidney M-1 cells, short circuit current, apical administration, 37° C., read-out: IC50

Papp A→B at 90 min, 10 μM [1] [×10⁻⁶ cm/s] | Papp B→A at 90 min, 10 μM [1] [×10⁻⁶ cm/s] | IC50 [2, 3] [nM] | SMILES | IC50 [2] [nM]
0.5 | 0.08 | 1 | CC[n+]1c(CNC(=O)c2nc(Cl)c(N)nc2N)n(C[C@@H]2CCCO2)c2cc(OCC(=O)N3CC[S+]([O-])CC3)ccc21.O=C([O-])C(F)(F)F [Example 1.01] | 
0.4 | 0.2 | 6 | CCn1c(CNC(=O)c2nc(Cl)c(N)nc2N)[n+](Cc2cccnc2)c2ccc(OCC(=O)N(C)C)cc21.O=C([O-])C(F)(F)F [Example 1.02] | 
0.2 | 0.07 | 49 | CC[n+]1c(CNC(=O)c2nc(Cl)c(N)nc2N)n(CCOCCn2ccccc2=O)c2cc(OCP(C)(C)=O)ccc21.O=C([O-])C(F)(F)F [Example 1.03] | 
0.3 | 0.2 | 3 | C[n+]1c(CNC(=O)c2nc(Cl)c(N)nc2N)n(C[C@@H]2CCCO2)c2cc(OCCO)ccc21.O=C([O-])C(F)(F)F [Example 1.04] | 
 |  | 5 | CCn1c(CNC(=O)c2nc(Cl)c(N)nc2N)[n+](CC2CCOCC2)c2ccc(OCC(=O)N(Cc3ccccc3)Cc3nc(C)ccc3[O-])cc21 [Example 1.05] | 
 |  | 1 | CCn1c(CNC(=O)c2nc(Cl)c(N)nc2N)[n+](CC2CCOCC2)c2ccc(OCC(=O)N(C)Cc3nc(C)ccc3[O-])cc21 [Example 1.06] | 
 |  | 2 | CCn1c(CNC(=O)c2nc(Cl)c(N)nc2N)[n+](CC2CCOCC2)c2ccc(OCC(=O)NCc3nc(C)ccc3[O-])cc21 [Example 1.07] | 
0.1 | 0.09 | 16 | CCn1c(CNC(=O)c2nc(Cl)c(N)nc2N)[n+](Cc2cccc(C(=O)N3CC[S+]([O-])CC3)c2)c2ccc(OCCO)cc21.O=C([O-])C(F)(F)F [Example 1.08] | 
 |  | 3 | Nc1nc(N)c(C(=O)NCc2n(C[C@@H]3CCCO3)c3cc(OCCO)ccc3[n+]2CCOCCO)nc1Cl [Example 1.09] | 
 |  | 26 | CC[n+]1c(CNC(=O)c2nc(Cl)c(N)nc2N)n(CCOCCn2cc(C(=O)N(C)C)ccc2=O)c2cc(OCCO)ccc21 [Example 1.11] | 
 |  | 2 | CCn1c(CNC(=O)c2nc(Cl)c(N)nc2N)[n+](CC2CCOCC2)c2ccc(OCC(=O)N(Cc3nc(C)ccc3[O-])C[C@H](C)O)cc21 [Example 1.12] | 
0.4 | 0.1 | 2 | CC[n+]1c(CNC(=O)c2nc(Cl)c(N)nc2N)n(CC2CCOCC2)c2cc(OCCC[n+]3cc([O-])cc(OC)c3)c(Cl)cc21.O=C([O-])C(F)(F)F [Example 1.13] | 
 |  | 7 | CC[n+]1c(CNC(=O)c2nc(Cl)c(N)nc2N)n(C[C@@H]2CCCO2)c2cc(OCC(=O)N3CCN(C(=O)OCc4ccccc4)CC3)ccc21 [Example 1.14] | 
 |  | 2 | CC[n+]1c(CNC(=O)c2nc(Cl)c(N)nc2N)n(C[C@@H]2CCCO2)c2cc(OCC(=O)N3C[C@@H](O)[C@H](O)C3)ccc21 [Example 1.15] | 
 |  | 87 | CC[n+]1c(CNC(=O)c2nc(Cl)c(N)nc2N)n(CCOCCN2CCCCC2=O)c2cc(OCP(C)(C)=O)ccc21 [Example 1.16] | 
 |  | 1 | CCN(Cc1ncccc1[O-])C(=O)COc1ccc2c(c1)n(CC)c(CNC(=O)c1nc(Cl)c(N)nc1N)[n+]2CC1CCOCC1 [Example 1.17] | 
0.03 | 0.05 | 1 | CC[n+]1c(CNC(=O)c2nc(Cl)c(N)nc2N)n(C[C@@H]2CCCO2)c2cc(OCC(=O)NCc3ccccn3)ccc21.O=C([O-])C(F)(F)F [Example 2.01] | 
 |  | 3 | CCNC(=O)N1CCC(n2c(CNC(=O)c3nc(Cl)c(N)nc3N)[n+](CC)c3ccc(OCC(=O)NC4CCNCC4)cc32)CC1 [Example 3.02] | 
 |  | 4 | CCCCCCN1CCC(NC(=O)COc2ccc3c(c2)n(C2CCN(C(=O)NCC)CC2)c(CNC(=O)c2nc(Cl)c(N)nc2N)[n+]3CC)CC1 [Example 4.01] | 
 |  | 2 | CCNC(=O)N1CCC(n2c(CNC(=O)c3nc(Cl)c(N)nc3N)[n+](CC)c3ccc(OCC(=O)NC4CCN(CC)CC4)cc32)CC1 [Example 4.02] | 
 |  | 18 | CCNC(=O)N1CCC(n2c(CNC(=O)c3nc(Cl)c(N)nc3N)[n+](CC)c3ccc(OCC(=O)O)cc32)CC1 [Example 5.01] | 
 |  |  | CCOP(=O)([O-])CCCCn1c(CNC(=O)c2nc(Br)c(N)nc2N)[n+](CC)c2ccc(O)cc21 [Example 6.01] | 25
 |  | 63 | CC[n+]1c(CNC(=O)c2nc(Cl)c(N)nc2N)n(CCCCP(=O)([O-])O)c2cc(O)ccc21 [Example 7.01] | 
